Assay results reported in patent publication US20260337208A1, “HETEROCYCLIC DERIVATIVES AS JANUS KINASE INHIBITORS” (CHIESI FARMACEUTICI S.P.A., priority 2022, published 2026).

Columns and labels:
[1] = RA patients, including a subgroup with interstitial lung disease; cited from earlier work
[2] = cited from earlier work; for admission rate of the intensive care unit / incidence of acute respiratory distress syndrome (ARDS) / risk of mortality / use of invasive mechanical ventilation: COVID-19
JAK2 = JAK2 (Homo sapiens, UniProt O60674); assay: Biochemical potency on JAK2, TR-FRET (LANCE Ultra kinase assay); conditions: ATP corresponding to Km; cell-free; read-out: JAK2 inhibitory activity (pIC50) (converted)
JAK2, sequence (O60674 whole entry): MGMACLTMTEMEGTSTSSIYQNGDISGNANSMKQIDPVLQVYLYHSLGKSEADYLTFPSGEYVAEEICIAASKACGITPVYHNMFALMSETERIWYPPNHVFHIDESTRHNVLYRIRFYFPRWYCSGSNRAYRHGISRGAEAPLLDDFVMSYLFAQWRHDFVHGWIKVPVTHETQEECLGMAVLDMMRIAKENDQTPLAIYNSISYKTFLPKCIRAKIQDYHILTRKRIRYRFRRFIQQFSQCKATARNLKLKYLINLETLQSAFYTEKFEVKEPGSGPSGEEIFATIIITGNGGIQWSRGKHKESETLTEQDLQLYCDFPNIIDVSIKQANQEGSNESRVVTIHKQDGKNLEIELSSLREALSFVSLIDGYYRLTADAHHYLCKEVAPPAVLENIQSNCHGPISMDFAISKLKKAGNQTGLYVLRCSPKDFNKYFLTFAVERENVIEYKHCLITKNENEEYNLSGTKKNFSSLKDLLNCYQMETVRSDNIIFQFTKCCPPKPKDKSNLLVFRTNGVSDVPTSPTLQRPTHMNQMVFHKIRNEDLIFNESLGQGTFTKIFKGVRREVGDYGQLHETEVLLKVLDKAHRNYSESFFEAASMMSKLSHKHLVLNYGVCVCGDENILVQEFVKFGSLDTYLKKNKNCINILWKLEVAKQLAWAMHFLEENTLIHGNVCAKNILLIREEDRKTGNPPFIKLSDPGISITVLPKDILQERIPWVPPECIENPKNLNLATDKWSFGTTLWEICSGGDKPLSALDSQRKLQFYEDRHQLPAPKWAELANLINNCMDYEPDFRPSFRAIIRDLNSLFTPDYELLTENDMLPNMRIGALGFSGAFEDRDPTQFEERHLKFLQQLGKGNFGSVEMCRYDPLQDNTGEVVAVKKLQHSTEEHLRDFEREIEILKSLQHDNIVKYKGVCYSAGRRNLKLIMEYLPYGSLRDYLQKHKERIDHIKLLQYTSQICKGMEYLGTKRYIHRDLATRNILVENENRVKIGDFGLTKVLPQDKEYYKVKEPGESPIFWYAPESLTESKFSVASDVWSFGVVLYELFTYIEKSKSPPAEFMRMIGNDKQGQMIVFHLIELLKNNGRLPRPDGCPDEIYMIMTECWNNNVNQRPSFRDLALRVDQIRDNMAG
How it was run: (§1)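 ULight-JAK-1 (Tyr1023) peptide phosphorylation at Km ATP, 1.5 h r.t.; substrate solution held peptide 30/50/20/10 nM and ATP 20/0.7/0.2/12 μM, enzyme solution 0.15/0.083/0.025/0.144 ng/μL (JAK1/JAK2/JAK3/TYK2). EDTA stop, Eu-PT66 antibody TR-FRET read at 665 nm; 11-point 5-fold dilutions from 20 μM; IC50 by variable-slope fit.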

JAK3 = target: T1, JAK3 (Homo sapiens, UniProt P52333); assay: Biochemical potency on JAK3, TR-FRET (LANCE Ultra kinase assay); conditions: ATP corresponding to Km; cell-free; read-out: JAK3 inhibitory activity (pIC50) (converted)
T1 sequence (P52333 1-1124): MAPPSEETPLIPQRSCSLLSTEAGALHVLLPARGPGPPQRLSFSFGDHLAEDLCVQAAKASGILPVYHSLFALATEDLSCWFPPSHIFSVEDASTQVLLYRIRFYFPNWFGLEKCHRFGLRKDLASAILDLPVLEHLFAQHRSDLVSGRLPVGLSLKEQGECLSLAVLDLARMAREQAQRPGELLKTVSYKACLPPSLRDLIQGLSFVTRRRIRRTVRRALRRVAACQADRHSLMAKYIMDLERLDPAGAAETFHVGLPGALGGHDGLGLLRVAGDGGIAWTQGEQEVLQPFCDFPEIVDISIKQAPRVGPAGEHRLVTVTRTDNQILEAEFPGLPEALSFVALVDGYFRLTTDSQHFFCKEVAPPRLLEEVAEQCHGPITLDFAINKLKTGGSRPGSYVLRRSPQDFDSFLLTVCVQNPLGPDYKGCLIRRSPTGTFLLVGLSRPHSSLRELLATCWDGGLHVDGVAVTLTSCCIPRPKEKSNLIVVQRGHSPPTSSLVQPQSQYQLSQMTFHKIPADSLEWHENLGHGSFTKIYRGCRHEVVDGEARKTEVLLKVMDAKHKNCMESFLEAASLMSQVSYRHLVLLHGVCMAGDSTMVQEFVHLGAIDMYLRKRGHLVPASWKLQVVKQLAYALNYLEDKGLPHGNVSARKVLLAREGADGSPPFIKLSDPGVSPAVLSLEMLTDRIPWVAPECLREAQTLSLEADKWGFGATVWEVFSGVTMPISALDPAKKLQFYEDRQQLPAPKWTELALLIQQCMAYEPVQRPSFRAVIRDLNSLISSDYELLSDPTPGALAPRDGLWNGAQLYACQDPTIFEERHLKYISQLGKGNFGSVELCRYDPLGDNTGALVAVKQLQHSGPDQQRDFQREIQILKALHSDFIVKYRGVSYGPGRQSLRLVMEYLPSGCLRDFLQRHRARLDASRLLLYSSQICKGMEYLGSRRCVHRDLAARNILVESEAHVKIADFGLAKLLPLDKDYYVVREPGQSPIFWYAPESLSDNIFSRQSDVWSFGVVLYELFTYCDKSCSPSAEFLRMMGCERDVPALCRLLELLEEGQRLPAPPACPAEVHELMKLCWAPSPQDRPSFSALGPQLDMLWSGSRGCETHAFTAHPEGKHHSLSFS
How it was run: as §1

TYK2 = TYK2 (Homo sapiens, UniProt P29597); assay: Biochemical potency on Tyk2, TR-FRET (LANCE Ultra kinase assay); conditions: ATP corresponding to Km; cell-free; read-out: TYK2 inhibitory activity (pIC50) (converted)
TYK2, sequence (P29597 whole entry): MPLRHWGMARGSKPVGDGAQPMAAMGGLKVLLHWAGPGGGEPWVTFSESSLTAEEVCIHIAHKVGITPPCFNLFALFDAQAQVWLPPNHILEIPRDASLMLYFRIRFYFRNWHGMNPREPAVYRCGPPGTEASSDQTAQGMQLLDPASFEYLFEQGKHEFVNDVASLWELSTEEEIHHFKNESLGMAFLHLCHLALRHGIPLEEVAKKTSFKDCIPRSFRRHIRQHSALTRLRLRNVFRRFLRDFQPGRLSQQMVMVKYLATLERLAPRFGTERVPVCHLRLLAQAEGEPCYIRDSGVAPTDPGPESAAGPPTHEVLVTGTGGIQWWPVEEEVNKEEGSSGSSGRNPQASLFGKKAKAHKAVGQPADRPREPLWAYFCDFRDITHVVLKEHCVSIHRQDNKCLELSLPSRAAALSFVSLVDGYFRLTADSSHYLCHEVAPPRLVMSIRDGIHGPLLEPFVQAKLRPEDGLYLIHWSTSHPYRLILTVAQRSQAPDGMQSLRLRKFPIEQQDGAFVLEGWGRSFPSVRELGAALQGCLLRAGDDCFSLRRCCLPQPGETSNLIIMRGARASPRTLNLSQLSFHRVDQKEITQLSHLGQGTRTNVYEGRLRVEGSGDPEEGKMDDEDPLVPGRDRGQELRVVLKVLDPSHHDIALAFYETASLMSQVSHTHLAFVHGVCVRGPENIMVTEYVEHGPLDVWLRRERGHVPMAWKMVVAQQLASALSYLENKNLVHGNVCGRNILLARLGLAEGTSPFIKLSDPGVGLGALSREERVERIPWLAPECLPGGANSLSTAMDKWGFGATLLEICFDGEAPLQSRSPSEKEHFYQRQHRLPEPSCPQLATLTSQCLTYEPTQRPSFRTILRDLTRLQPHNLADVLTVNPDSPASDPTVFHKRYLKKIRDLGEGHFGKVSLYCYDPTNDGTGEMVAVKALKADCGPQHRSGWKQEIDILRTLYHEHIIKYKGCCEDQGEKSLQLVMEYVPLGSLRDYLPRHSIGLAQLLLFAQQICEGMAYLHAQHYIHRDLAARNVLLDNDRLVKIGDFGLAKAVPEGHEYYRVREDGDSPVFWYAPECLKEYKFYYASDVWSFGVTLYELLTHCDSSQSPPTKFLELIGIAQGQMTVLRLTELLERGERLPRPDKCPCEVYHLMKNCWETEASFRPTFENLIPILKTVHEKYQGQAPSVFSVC
How it was run: as §1

JAK1 = JAK1 (Homo sapiens, UniProt P23458); assay: Biochemical potency on JAK1, TR-FRET (LANCE Ultra kinase assay); conditions: ATP corresponding to Km; cell-free; read-out: JAK1 inhibitory activity (pIC50) (converted)
JAK1, sequence (P23458 whole entry): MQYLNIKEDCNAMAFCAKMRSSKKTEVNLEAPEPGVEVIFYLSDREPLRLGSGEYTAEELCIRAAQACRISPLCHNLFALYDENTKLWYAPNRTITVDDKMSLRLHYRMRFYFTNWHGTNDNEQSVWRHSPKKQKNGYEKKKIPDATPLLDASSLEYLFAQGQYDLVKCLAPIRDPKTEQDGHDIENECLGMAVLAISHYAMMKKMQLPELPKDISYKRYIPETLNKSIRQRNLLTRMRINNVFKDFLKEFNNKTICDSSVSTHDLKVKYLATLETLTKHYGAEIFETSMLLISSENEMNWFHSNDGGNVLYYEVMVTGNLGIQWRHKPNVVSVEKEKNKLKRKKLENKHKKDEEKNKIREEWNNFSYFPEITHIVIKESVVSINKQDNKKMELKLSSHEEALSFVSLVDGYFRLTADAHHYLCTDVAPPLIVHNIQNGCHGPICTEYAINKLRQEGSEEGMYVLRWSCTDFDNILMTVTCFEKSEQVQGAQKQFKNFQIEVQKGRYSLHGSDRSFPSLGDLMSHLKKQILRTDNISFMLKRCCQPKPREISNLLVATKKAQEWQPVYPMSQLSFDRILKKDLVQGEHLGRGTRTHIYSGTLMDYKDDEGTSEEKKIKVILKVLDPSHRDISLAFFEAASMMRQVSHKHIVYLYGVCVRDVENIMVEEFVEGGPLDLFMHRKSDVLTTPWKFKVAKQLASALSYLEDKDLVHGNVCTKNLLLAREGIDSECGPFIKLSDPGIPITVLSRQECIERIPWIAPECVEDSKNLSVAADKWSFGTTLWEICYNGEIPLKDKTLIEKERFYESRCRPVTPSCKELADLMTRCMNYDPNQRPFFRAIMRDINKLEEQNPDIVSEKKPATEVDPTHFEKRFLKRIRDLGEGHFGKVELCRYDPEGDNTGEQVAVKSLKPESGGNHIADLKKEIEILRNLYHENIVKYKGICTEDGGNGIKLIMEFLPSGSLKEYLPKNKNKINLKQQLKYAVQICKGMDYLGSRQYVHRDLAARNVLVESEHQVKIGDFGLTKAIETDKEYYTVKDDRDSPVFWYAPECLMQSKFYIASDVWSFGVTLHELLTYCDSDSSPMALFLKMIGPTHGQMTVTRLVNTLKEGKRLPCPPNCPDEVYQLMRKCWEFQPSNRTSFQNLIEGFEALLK
How it was run: as §1

[3] = test system: pSTAT6 in BEAS-2B human cell line; assay: Inhibition of IL-13 induced pSTAT6 in BEAS; format: cell-based; conditions: for IC50: Homo sapiens, BEAS-2B, 0.5 h, IL-13 trigger, 30 min, parent compound; for Fold difference parent vs predicted acid metabolite: ratio=IC50 predicted acid metabolite/IC50 ester
How it was run: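 BEAS-2B cells grown 48 h, pre-treated 30 min with compound, then stimulated 30 min with IL-13. Lysate pSTAT6 (Tyr641) measured by sandwich ELISA. Eleven 5-fold dilutions from 10 μM, in duplicate, fitted to IC50.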

[4] = bleomycin-induced fibrosis mouse model; cited from earlier work
[5] = test system: mouse model of chronic exposure to AAH allergens; conditions: cited from earlier work
OVA-challenged mice = conditions: given as dry powder; cited from earlier work
[6] = test system: house dust mite mouse model of asthma; conditions: formulated for being administered as aerosol; cited from earlier work
[7] = in vivo; cited from earlier work
[8] = in combination with nintedanib; case report; cited from earlier work

For `CCS(=O)(=O)N1CC(CC#N)(n2cc(-c3ncnc4[nH]ccc34)cn2)C1` [Baricitinib, baricitinib], the “biomarkers' levels of lung fibrosis and inflammation” value [1] is listed as “reduces the biomarkers' levels of lung fibrosis and inflammation”, the “safety as immune modulator” value [1] is listed as “safe immune modulator” and the “admission rate of the intensive care unit” value [2] is listed as “borderline impact”. The “incidence of acute respiratory distress syndrome (ARDS)” value [2] was “borderline impact”, the risk of mortality [2] was “reduced risk of mortality” and the “use of invasive mechanical ventilation” value [2] was “reduced the use of invasive mechanical ventilation”.
Work on `COc1cc2c(cc1-n1nc(C(=O)NCCN3CCC(C(=O)OCC4(C#N)CC4)CC3)c3cnc(-c4cnn5cccnc45)cc31)OCCN2` [Example 53, (1-cyanocyclopropyl)methyl 1-(2-(1-(6-methoxy-3,4-dihydro-2H-benzo[b][1,4]oxazin-7-yl)-6-(pyrazolo[1,5-a]pyrimidin-3-yl)-1H-pyrazolo[4,3-c]pyridine-3-carboxamido)ethyl)piperidine-4-carboxylate] yielded an IC50 (JAK2) of at most 5.01 nM, an IC50 (JAK3) of at most 5.01 nM and an IC50 (TYK2) of 5.01 to 50.1 nM. For the same molecule, the IC50 (JAK1) was at most 5.01 nM, the IC50 [3] was at most 5.01 nM and the “Fold difference parent vs predicted acid metabolite” value [3] was “kkkk (ratio≥200)”.
`COc1cc2c(cc1-n1nc(C(=O)NCCN3CCC(C(=O)OCCCC#N)CC3)c3cnc(-c4cnn5cccnc45)cc31)OCCN2` [Example 54, 3-cyanopropyl 1-(2-(1-(6-methoxy-3,4-dihydro-2H-benzo[b][1,4]oxazin-7-yl)-6-(pyrazolo[1,5-a]pyrimidin-3-yl)-1H-pyrazolo[4,3-c]pyridine-3-carboxamido)ethyl)piperidine-4-carboxylate] showed an IC50 (JAK2) of at most 5.01 nM, an IC50 (JAK3) of at most 5.01 nM and an IC50 (TYK2) of 5.01 to 50.1 nM. The IC50 (JAK1) was at most 5.01 nM, the IC50 [3] was at most 5.01 nM and the “Fold difference parent vs predicted acid metabolite” value [3] was “kkkk (ratio≥200)”.
In the case of `COc1cc2c(cc1-n1nc(C(=O)NCCN3CC[C@@H](C(=O)O[C@@H]4CCN(CCF)C4)C3)c3cnc(-c4cnn5cccnc45)cc31)OCCN2` [Example 55, (R)-1-(2-fluoroethyl)pyrrolidin-3-yl (R)-1-(2-(1-(6-methoxy-3,4-dihydro-2H-benzo[b][1,4]oxazin-7-yl)-6-(pyrazolo[1,5-a]pyrimidin-3-yl)-1H-pyrazolo[4,3-c]pyridine-3-carboxamido)ethyl)pyrrolidine-3-carboxylate], the IC50 (JAK2) is reported as at most 5.01 nM, the IC50 (JAK3) is reported as at most 5.01 nM and the IC50 (TYK2) is reported as 5.01 to 50.1 nM. For the same molecule, the IC50 (JAK1) was at most 5.01 nM, the IC50 [3] was 5.01 to 50.1 nM and the “Fold difference parent vs predicted acid metabolite” value [3] was “kk (100>ratio≥10)”.
In the case of `COc1cc2c(cc1-n1nc(C(=O)NCCN3CC[C@H](C(=O)O[C@@H]4CCN(C)C4)C3)c3cnc(-c4cnn5cccnc45)cc31)OCCN2` [Example 56, (R)-1-methylpyrrolidin-3-yl (S)-1-(2-(1-(6-methoxy-3,4-dihydro-2H-benzo[b][1,4]oxazin-7-yl)-6-(pyrazolo[1,5-a]pyrimidin-3-yl)-1H-pyrazolo[4,3-c]pyridine-3-carboxamido)ethyl)pyrrolidine-3-carboxylate], the IC50 (JAK2) is reported as at most 5.01 nM, the IC50 (JAK3) is reported as at most 5.01 nM and the IC50 (TYK2) is reported as 5.01 to 50.1 nM. The IC50 (JAK1) was at most 5.01 nM, the IC50 [3] was 5.01 to 50.1 nM and the “Fold difference parent vs predicted acid metabolite” value [3] was “kk (100>ratio≥10)”.
`COc1cc2c(cc1-n1nc(C(=O)NCCN3CCC(C(=O)OC4CN(C(C)C)C4)CC3)c3cnc(-c4cnn5cccnc45)cc31)OCCN2` [Example 57, 1-isopropylazetidin-3-yl 1-(2-(1-(6-methoxy-3,4-dihydro-2H-benzo[b][1,4]oxazin-7-yl)-6-(pyrazolo[1,5-a]pyrimidin-3-yl)-1H-pyrazolo[4,3-c]pyridine-3-carboxamido)ethyl)piperidine-4-carboxylate] showed an IC50 (JAK2) of at most 5.01 nM, an IC50 (JAK3) of at most 5.01 nM and an IC50 (TYK2) of 5.01 to 50.1 nM. The IC50 (JAK1) was at most 5.01 nM, the IC50 [3] was 5.01 to 50.1 nM and the “Fold difference parent vs predicted acid metabolite” value [3] was “kkk (200>ratio≥100)”.
With `CCOC(=O)C1CCN(CCNC(=O)c2nn(-c3cc4c(cc3OC)NCCO4)c3cc(Nc4ncc[nH]c4=O)ncc23)CC1` [Example 58, ethyl 1-(2-(1-(6-methoxy-3,4-dihydro-2H-benzo[b][1,4]oxazin-7-yl)-6-((3-oxo-3,4-dihydropyrazin-2-yl)amino)-1H-pyrazolo[4,3-c]pyridine-3-carboxamido)ethyl)piperidine-4-carboxylate] the IC50 (JAK2) was at most 5.01 nM, the IC50 (JAK3) was at most 5.01 nM and the IC50 (TYK2) was 5.01 to 50.1 nM. The IC50 (JAK1) was at most 5.01 nM, the IC50 [3] was 5.01 to 50.1 nM and the “Fold difference parent vs predicted acid metabolite” value [3] was “kkkk (ratio≥200)”.
`CCSC(=O)C1CCN(CCNC(=O)c2nn(-c3cc4c(cc3OC)NCCO4)c3cc(-c4cnn5cccnc45)ncc23)CC1` [Example 59, S-ethyl 1-(2-(1-(6-methoxy-3,4-dihydro-2H-benzo[b][1,4]oxazin-7-yl)-6-(pyrazolo[1,5-a]pyrimidin-3-yl)-1H-pyrazolo[4,3-c]pyridine-3-carboxamido)ethyl)piperidine-4-carbothioate] showed an IC50 (JAK2) of at most 5.01 nM, an IC50 (JAK3) of at most 5.01 nM and an IC50 (TYK2) of 5.01 to 50.1 nM. For the same molecule, the IC50 (JAK1) was at most 5.01 nM, the IC50 [3] was at most 5.01 nM and the “Fold difference parent vs predicted acid metabolite” value [3] was “kkkk (ratio≥200)”.
For `N#CC[C@H](C1CCCC1)n1cc(-c2ncnc3[nH]ccc23)cn1` [Ruxolitinib, ruxolitinib], the “fibrotic lesions in lung” value [4] is given as “ameliorated the fibrotic lesions in lung”, the “levels of fibrotic molecular markers” value [4] is given as “reduced levels of fibrotic molecular markers” and the “admission rate of the intensive care unit” value [2] is given as “borderline impact”. For the same molecule, the “incidence of acute respiratory distress syndrome (ARDS)” value [2] was “borderline impact”, the risk of mortality [2] was “reduced risk of mortality” and the “use of invasive mechanical ventilation” value [2] was “reduced the use of invasive mechanical ventilation”. For the same molecule, the “clinical symptoms and chest computed tomography images” value ([2]; COVID-19 patients) was “improved the clinical symptoms and chest computed tomography images”.
In the case of `CN(CCC#N)C1CCN(C(=O)Cn2cc(NC(=O)c3cnn4cccnc34)c(-c3cc(Cl)ccc3OC(F)F)n2)CC1` [iJak-381], the BAL eosinophilia [5] is listed as “reduced”, the CCL11 [5] is listed as “reduced” and the CXCL1 [5] is listed as “reduced”. The neutrophilia [5] was “reduced”, the BAL eosinophilia (OVA-challenged mice) was “reduced” and the CCL11 (OVA-challenged mice) was “reduced”. For the same molecule, the Muc5AC (OVA-challenged mice) was “reduced” and the airway resistance (OVA-challenged mice) was “reduced”.
In the case of `C[C@@H]1CCN(C(=O)CC#N)C[C@@H]1N(C)c1ncnc2[nH]ccc12` [tofacitinib], the eosinophils count [6] is given as “reduced eosinophils count”, the “preventive effect in experimental dermal and pulmonary fibrosis” value [7] is given as “acted as a preventive agent” and the “efficacy and safety in aggressive interstitial lung disease” value [8] is given as “corroborated the efficacy and safety”.
